PubChem BioAssay (NCI)
Values joined by “and” are separate entries in the source; they are usually repeats but may differ in a detail not shown here. Identical values can stand only once.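 Test compounds were applied to cells in 96-well plates for 48 hours at 5 doses. At the GI50, growth is halved. Definition used: TGI = concentration required for complete inhibition of growth.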

How the values were obtained:
Experiment in all cases: inhibition of tumour cell growth, NCI panel, 48 h
[1] = test system: U251 CNS
[2] = test system: M14 melanoma
[3] = test system: OVCAR-4 ovarian
[4] = test system: BT-549 breast
[5] = test system: EKVX NSCLC
[6] = test system: SK-OV-3 ovarian
[7] = test system: HCT-116 colon
[8] = test system: 786-0 renal
[9] = test system: SW-620 colon
[10] = test system: NCI-H522 lung

Structure (SMILES) | GI50 [1] [µM] | TGI [1] [µM] | GI50 [2] [µM] | TGI [2] [µM] | GI50 [3] [µM] | TGI [3] [µM] | GI50 [4] [µM] | TGI [4] [µM] | GI50 [5] [µM] | TGI [5] | GI50 [6] [µM] | TGI [6] [µM] | GI50 [7] [µM] | TGI [7] [µM] | GI50 [8] [µM] | TGI [8] [µM] | GI50 [9] [µM] | TGI [9] [µM] | GI50 [10] [µM] | TGI [10] [µM]
O=C(NCCN1CCOCC1)Nc1ccc(-c2cc3c(Nc4ccc(Oc5cccc(C(F)(F)F)c5)c(Cl)c4)ncnc3s2)cc1 | 0.769 | 2.43 | 1.16 | 3.24 | 3.26 | 11.5 | 2.32 | 11.1 | 2.27 | 8.61 µM | 1.88 | 7.49 | 1.49 | 5.05 | 0.67 | 1.6 | 1.01 | 2.06 | 0.91 | 2.26
COc1cccc2c1cc([N+](=O)[O-])c1c(C(=O)O)cc3c(c12)OCO3 | 22.9 | > 100 |  | > 100 | 83.4 | > 100 |  | > 100 | 26.6 | 91.7 µM and > 100 µM | 38.4 | > 100 |  | > 80.6 | 27.6 | > 100 | 28.2 | > 100 |  | > 100
COc1ccc(C2C(c3ccccc3)C(=O)N2c2cc(OC)c(OC)c(OC)c2)cc1I (stereo unspecified) | 0.388 | > 100 | 0.301 | > 100 | 0.709 | > 100 | 0.419 | 5.36 | 0.658 | > 100 µM | 0.395 | > 100 | 0.343 | 12.4 | 0.397 | > 100 | 0.423 | > 100 | 0.276 | 0.887
CCCCCCNC(=O)Oc1ccc(/C(=C(\C)c2ccccc2)c2ccc(OCCN3CCCCC3)cc2)cc1 | 1.81 | 3.81 | 1.98 | 3.97 | 3.04 | 10.7 | 2.38 | 7.1 | 4.11 | 18 µM | 5.05 | 19.3 | 1.49 | 2.89 | 1.69 | 3.12 | 2.16 | 5.66 | 1.91 | 4.07
O=C(Nc1cccc(C(F)(F)F)c1)c1cccc(NC2=C(Cl)C(=O)N(Cc3ccccc3)C2=O)c1 | 6.17 | > 100 | 3.68 | 14.3 | 52.2 | > 100 | 18.8 | 64.2 | 68.5 | > 100 µM | 79.1 | > 100 | 13.5 | 39.2 | 27.4 | > 100 | 38.4 | > 100 | 4.88 | 23.5
C=C1C(=O)O[C@H]2[C@H]1[C@H](OC(=O)/C(C)=C\C)C[C@]1(CO1)[C@@H]1[C@H](OC(C)=O)C=C(C)[C@]21O |  | 52 |  | 54.9 |  | > 100 |  | 24.4 |  | 33.8 µM |  | > 100 |  | 20.3 |  | 23.5 |  | 27.9 |  | 16.8
O=C(O)c1ccc(-c2ccc(C(=O)O)cc2I)c(I)c1 | > 100 | > 100 | > 100 | > 100 | > 100 | > 100 | > 100 | > 100 | > 100 | > 100 µM | > 100 | > 100 | > 100 | > 100 | > 100 | > 100 | > 100 | > 100 | > 100 | > 100
CS(=O)(=O)OCCN(CCOS(C)(=O)=O)c1ccc(C=Nc2ccc3oc(=O)ccc3c2)cc1 |  | 41.9 |  | 31.6 |  | 41 |  | 45.7 |  | 36.5 µM |  | 9.92 |  | > 100 |  | 3.5 |  | > 83.1 |  | 0.828
O=C(c1ccco1)c1c(C(F)(F)F)nc2cc(C(F)(F)F)ccc2[n+]1[O-] | 34.7 | > 100 | > 100 | > 100 | > 100 | > 100 | 57.8 | > 100 | 50.6 | > 100 µM | 20.3 | 64.6 | 33.4 | > 100 | 36.7 | > 100 | > 100 | > 100 | 65.8 | > 100
Cc1c2ncccc2nc2[nH]c3ccc(OCCN(C)C)cc3c12 | 2.68 | 17.3 | 3.01 | 15.6 | 1.84 | 8.75 | 7.46 | 29.7 | 2.9 | 21.2 µM | 2.3 | 17.5 | 0.552 | 12.3 | 2.81 | 16.1 | 0.94 | 13.7 | 2.41 | 15.9
COc1ccc2c(c1OC)-c1c(c3ccc([N+](=O)[O-])cc3c(=O)n1CCCN=[N+]=[N-])C2=O | 6.2 | > 100 | 3.46 | 10.6 | > 100 | > 100 | > 100 | > 100 | > 100 | > 100 µM | 19.4 | > 100 | 2.93 | 38.2 | 3.44 | 15.8 | 23.1 | > 100 | 3 | 51.7
COc1cc(/C=C2\CC3C4CC=C5C[C@@H](N6CCCC6)CC[C@]5(C)C4CC[C@]3(C)[C@H]2OC(C)=O)ccc1OCCN1CCCCC1 (stereo partly specified) | 1.55 | 3.02 | 1.58 | 3 | 3.03 | 8.98 | 2.25 | 4.13 | 1.99 | 4.3 µM | 2.15 | 4.39 | 0.275 | 0.85 | 0.217 | 1.89 | 0.777 | 2.09 | 1.67 | 3.24
CCn1c(-c2nonc2N)nc2c(C#CC(C)(C)O)nc(O[C@@H](CN)c3ccccc3)cc21 | 0.0455 | 1.15 | 0.407 | 1.67 | 0.447 | 4.63 | 0.356 | 1.9 | 0.982 | 9.38 µM | 0.073 | 4.57 | 0.121 | 2.61 | 0.16 | 2.49 | 0.119 | 3.17 | 0.0919 | 0.353
O=C(O)C(Br)C(Br)c1ccccc1[N+](=O)[O-] (stereo unspecified) |  | > 100 |  | > 100 |  | > 100 |  | > 100 |  | > 100 µM |  | > 100 |  | > 100 |  | > 100 |  | > 100 |  | > 100
COc1ccc(NC(=O)c2sc3nc(C)c(C(O)c4ccc(OC)cc4)cc3c2N)cc1 (stereo unspecified) | 1.43 | > 50 | 1 | > 50 | 5.12 | > 50 | 1.81 | > 50 | 3.13 | > 50 µM | 1.89 | > 50 | 0.983 | > 50 | 3.35 | > 50 | 1.26 | > 50 | 1.27 | > 50
O=[N+]([O-])c1cc(Cl)cc2c1nc(NCCO)c1ccccc12 |  | > 100 |  | > 100 |  | > 100 |  | > 82.1 |  | > 100 µM |  | > 100 |  | > 100 |  | > 100 |  | > 100 |  | 62.9
Cc1ccc(C2SCc3nc4ccc(C(=O)c5ccccc5)cc4n32)cc1 (stereo unspecified) | 5.09 | > 83.7 | 11.6 | > 69.1 | 34 | > 100 | 4.8 | 18.4 | 21.8 | > 100 µM | 20.5 | 47.8 | 3.99 | 41.3 | 13.3 | 42.2 | 3.69 | > 39.1 | 7.93 | 38.2
COc1ccc(/C(Cl)=C(\C=O)c2ccc(OC)c(OC)c2)cc1OC |  | > 100 |  | > 100 |  | > 100 |  | > 100 |  | > 100 µM |  | > 100 |  | > 100 |  | > 100 |  | > 100 |  | > 100
